Earlier results on 1 compound are cited in patent publication US9370492B2, “Solid pharmaceutical dosage forms comprising bisphosphonates and modified amino acid carriers” (EMISPHERE TECHNOLOGIES, INC., priority 2005, dated 2016).

Structures can show the parent of a compound that is named as a salt.

With `CCCCCN(C)CCC(O)(P(=O)(O)O)P(=O)(O)O` [Ibandronate sodium, 3-(N-methyl-N-pentyl)amino-1-hydroxypropane-1,1-diphosphonic acid, monosodium salt, monohydrate], the “solubility in organic solvents” value (organic solvents) is “practically insoluble”. The solubility in water entry (water) is on record as “freely soluble”.
